The test system of test [1] is farnesylation of Ras protein in NIH3T3 cells. The test can be described thus: Inhibitory effect on farnesylation of Ras protein in NIH3T3 cells into which an activated ras gene was introduced (SDS-PAGE, anti-Ras antibody, densitometry). It counts as cell-based. Particulars: for inhibitory activity on farnesylation of Ras proteins in the presence of L-654,969: in the presence of L-654,969 (0.15 μM or 5 μM). The protocol: Inhibitory effect on farnesylation of Ras protein in NIH3T3 cells into which an activated ras gene was introduced, was measured by using the compounds prepared in Preparation Examples 3 and 5 as PFT inhibitors and L-654,969 (an active metabolite of simvastatin) as a hydroxymethylglutaryl CoA reductase inhibitor.
The cells were cultured for 24 hours, peeled off the plates and dissolved in accordance with the method disclosed in J. Biol. Chem., vol. 268, 18415 (1993). The cell solutions were centrifuged at 12000 g for 5 minutes, and the supernatants were used as cell extracts. The cell extracts were subjected to SDS polyacrylamide gel electrophoresis to separate the farnesylated Ras protein and the unfarnesylated Ras protein. […] After the anti-primary antibody, a peroxidaze-conjugated antibody (a secondary antibody) was allowed to react, the Ras protein was detected by mean of a chemoluminescence amplification kit. The proportion of the unfarnesylated Ras protein was determined by using a densitometer and defined as the inhibitory activity.

Test [2] concerns BMJ1 cells. As to the kind of experiment: Inhibitory activity on proliferation of transformed BMJ1 cells (SRB method). The format is cell-based, mouse. Particulars: for IC50: Mus musculus, transformed BMJ1 cells; for 50% cell proliferation inhibitory activity in the presence of L-654,969: presence of 0.8 μM of L-654,969. As for the experimental part: The BMJ1 cells which were obtained by introducing a hormone-inducible activated ras gene into BALB3T3 cells, a mouse-derived established cell line, were transformed by adding dexamethasone to the culture so as to produce an activated Ras protein. To assess the inhibitory effects of the PFT inhibitors on cell proliferation, the 50% proliferation inhibitory concentration for each compound was calculated by adding each compound to a transformed BMJ1 cell culture at various concentrations, and counting the number of cells after incubation. The cell numbers were counted in accordance with the SRB method disclosed in Proc. Am. Assoc. Cancer Res., vol.
In general terms: Sulforhodamine B stains cellular protein and so reports cell mass.

The mark [3] stands for this setting: PFT inhibitor 1 μM, L-654,969 5 μM, 24 hours.
The mark [4] stands for this setting: PFT inhibitor 3 μM, L-654,969 0.15 μM, 24 hours.
Where [5] appears, read: PFT inhibitor 3 μM, L-654,969 5 μM, 24 hours.
Setting [6] is: In the absence of L-654,969, read-out: 50% Proliferation inhibitory concentration (IC50 μM) In the absence of L-654,969.
Where [7] appears, read: In the presence of 0.8 μM of L-654,969, read-out: 50% Proliferation inhibitory concentration (IC50 μM) In the presence of 0.8 μM of L-654,969.

Where two headings read alike, the source gives them in different places.

Turning to `CCC(C)(C)C(=O)O[C@H]1C[C@@H](C)C=C2C=C[C@H](C)[C@H](CC[C@@H](O)C[C@@H](O)CC(=O)O)[C@H]21` [L-654,969, reference compound], in test [1] (0.15 μM or 5 μM, by itself), the “inhibition of farnesylation of the Ras proteins by L-654,969 by itself” value is “does not inhibit farnesylation of the Ras proteins”. For the same molecule, the “inhibition of cell proliferation by L-654,969 alone” value in test [2] (0.8 μM, alone) was “does not inhibit cell proliferation alone”.

For `C[C@H]([C@H](C/C=C/c1nc2ccccc2o1)c1ccc2c(c1)OCO2)N(Cc1ccc2ccccc2c1)C(=O)C(O)=C(CC(=O)O)C(=O)OC(C)(C)C` [Preparation Example 5, 4-[N-{(1R,2R,4E)-5-(2-benzoxazolyl)-1-methyl-2-(3,4-methylenedioxyphenyl)-4-pentenyl}-N-(2-naphthylmethyl)carbamoyl]-3-tert-butoxycarbonyl-4-hydroxy-3-butenoic acid], in test [1] (Mus musculus, NIH3T3, PFT inhibitor 3 μM, L-654,969: None, 24 hours, read-out: Inhibitory rate (%) on farnesylation of the Ras proteins), the inhibition at 3 µM came to 32%. The “Inhibitory rate (%) on farnesylation of the Ras proteins” value in test [1] (PFT inhibitor 0.3 μM, L-654,969 5 μM, 24 hours) is given as 43%; in test [1] (PFT inhibitor 1 μM, L-654,969 0.15 μM, 24 hours) it was 18%; in test [1] (setting [3]), 86%; in test [1] (setting [4]) it was 72%; in test [1] (setting [5]) it was 95%. In test [1], the “inhibitory activity on farnesylation of Ras proteins in the presence of L-654,969” value is “increased synergically and concentration-dependently”. In addition, the results for the IC50 in test [2] (setting [6]) and in test [2] (setting [7]) were 3.1 µM and 0.93 µM, respectively. Further, the “50% cell proliferation inhibitory activity in the presence of L-654,969” value in test [2] is “increased synergecally and concentration-dependently”.

In the case of `C[C@H]([C@H](C/C=C/c1nc2ccccc2o1)c1ccc2c(c1)OCO2)N(Cc1ccc2ccccc2c1)C(=O)CC(CC(=O)O)(C(=O)O)C(=O)O` (racemic) [Preparation Example 3, 3-[N-{(1RS,2RS,4E)-5-(2-benzoxazolyl)-1-methyl-2-(3,4-methylenedioxyphenyl)-4-pentenyl}-N-(2-naphthylmethyl)carbamoyl]-1,2,2-propanetricarboxylic acid], the inhibition at 10 µM in test [1] (Mus musculus, NIH3T3, PFT inhibitor 10 μM, L-654,969: None, 24 hours, read-out: Inhibitory rate (%) on farnesylation of the Ras proteins) was 32%. For the same molecule, the “Inhibitory rate (%) on farnesylation of the Ras proteins” value stood at 55% in test [1] (setting [3]); 27% in test [1] (setting [4]); 88% in test [1] (setting [5]); 67% in test [1] (PFT inhibitor 10 μM, L-654,969 0.15 μM, 24 hours); 90% in test [1] (PFT inhibitor 10 μM, L-654,969 5 μM, 24 hours). Besides, the “inhibitory activity on farnesylation of Ras proteins in the presence of L-654,969” value in test [1] is “increased synergically and concentration-dependently”. Moreover, the IC50 in test [2] (setting [6]) came to 130 µM; in test [2] (setting [7]), 11 µM. In addition, the “50% cell proliferation inhibitory activity in the presence of L-654,969” value in test [2] is “increased synergecally and concentration-dependently”.

Consider `C[C@H]([C@H](C/C=C/c1nc2ccccc2o1)c1ccc2c(c1)OCO2)N(Cc1ccc2ccccc2c1)C(=O)[C@H](O)[C@@H](CC(=O)[O-])C(=O)[O-].[Na+].[Na+]` (racemic) [Preparation Example 4, disodium (3RS,4RS)-4-[N-{(1RS,2RS,4E)-5-(2-benzoxazolyl)-1-methyl-2-(3,4-methylenedioxyphenyl)-4-pentenyl}-N-(2-naphthylmethyl)carbamoyl]-3-carboxylato-4-hydroxybutanoate], for which the IC50 in test [2] (setting [6]) turned out to be 105 µM; in test [2] (setting [7]), 6.5 µM. Further, the “50% cell proliferation inhibitory activity in the presence of L-654,969” value in test [2] is “increased synergecally and concentration-dependently”.

These data come from patent publication US6083985A, “Medicinal composition” (Banyu Pharmaceutical Co., Ltd., priority 1995, dated 2000).
